Experimental data from ChEMBL document CHEMBL1201862, “PubChem BioAssay data set” (2004).
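Exposure lasted 48 hours, with cells grown in 96-well plates and compounds tested at five concentrations. GI50 is the concentration that inhibits growth by half.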 Calls of active or inactive are those of the source. Rule as the data show it: active = GI50 up to about 1.1 µM and inactive = higher. Square brackets hold non-standard residues; d marks the D form. Peptide text beside a SMILES is read from it. * marks the point of attachment. Phe(4-NO2) = N[CH](Cc1ccc([N+](=O)[O-])cc1)C(=O)O; Boc = CC(C)(C)OC(=O)*

What was measured:
Assay in all cases: inhibition of tumour cell growth, NCI panel, 48 h
786-0 = tested on: 786-0
HCC 2998 = tested on: HCC 2998
HCT-116 = tested on: HCT-116
K562 = tested on: K562
LOX IMVI = tested on: LOX IMVI
MCF7 = tested on: MCF7
MDA-MB-435 = tested on: MDA-MB-435
Malme-3M = tested on: Malme-3M
NCI-H23 = tested on: NCI-H23
NCI/ADR-RES = tested on: NCI/ADR-RES
OVCAR-3 = tested on: OVCAR-3
OVCAR-8 = tested on: OVCAR-8
SF-539 = tested on: SF-539
SK-MEL-28 = tested on: SK-MEL-28
SN12C = tested on: SN12C
SNB-75 = tested on: SNB-75
SR = tested on: SR
SW-620 = tested on: SW-620
T47D = tested on: T47D
LXFL 529 = tested on: LXFL 529

Measured: GI50

N#C/C(=C\Nc1ccccn1)C(=O)C1CC1
inactive: 786-0 > 100 µM | HCC 2998 > 100 µM | HCT-116 > 100 µM | K562 > 100 µM | LOX IMVI > 100 µM | MCF7 > 100 µM | MDA-MB-435 > 100 µM | Malme-3M > 100 µM | NCI-H23 > 100 µM | NCI/ADR-RES > 100 µM | OVCAR-3 > 100 µM | OVCAR-8 > 100 µM | SF-539 > 100 µM | SK-MEL-28 > 100 µM | SN12C > 100 µM | SNB-75 > 100 µM | SR > 100 µM | SW-620 > 100 µM | T47D > 100 µM

COC1/C=C\OC2(C)Oc3c(C)c(O)c4c(O)c(c(CN(C)C)c(O)c4c3C2=O)NC(=O)/C(C)=C\C=C/C(C)C(O)C(C)C(O)C(C)C(OC(C)=O)C1C (stereo unspecified)
inactive: 786-0 27.4 µM | HCC 2998 20.5 µM | HCT-116 18.3 µM | K562 22.6 µM | LOX IMVI 17.6 µM | MCF7 17.9 µM | MDA-MB-435 26.4 µM | Malme-3M 19.3 µM | NCI-H23 16 µM | NCI/ADR-RES > 100 µM | OVCAR-3 15.4 µM | OVCAR-8 30.6 µM | SF-539 17.5 µM | SK-MEL-28 31.4 µM | SN12C 25.9 µM | SNB-75 39.3 µM | SR 15.7 µM | SW-620 12.2 µM | T47D 29 µM

CNC(=O)CN(CC(=O)NC)C(=O)NC
inactive: 786-0 > 100 µM | HCC 2998 > 100 µM | K562 > 100 µM | LOX IMVI > 100 µM | LXFL 529 > 100 µM | Malme-3M > 100 µM | NCI-H23 > 100 µM | OVCAR-3 > 100 µM | OVCAR-8 > 100 µM | SF-539 > 100 µM | SK-MEL-28 > 100 µM | SNB-75 > 100 µM | SR > 100 µM | SW-620 > 100 µM

N/N=C1\C(=O)N(CCc2ccccc2)C(=O)C1C(=O)NCCc1ccccc1 (stereo unspecified)
inactive: 786-0 > 100 µM | HCT-116 > 100 µM | K562 > 100 µM | LOX IMVI > 100 µM | LXFL 529 > 100 µM | Malme-3M > 100 µM | NCI-H23 > 100 µM | OVCAR-3 > 100 µM | SF-539 > 100 µM | SK-MEL-28 > 100 µM | SN12C > 100 µM | SNB-75 > 100 µM | SR > 100 µM | SW-620 > 100 µM

CC(C)OP(=O)(NC(=S)c1ccccc1)OC(C)C
inactive: 786-0 > 100 µM | HCC 2998 > 100 µM | HCT-116 > 100 µM | K562 > 100 µM | LOX IMVI > 100 µM | LXFL 529 57.7 µM | Malme-3M > 100 µM | NCI-H23 > 100 µM | OVCAR-3 > 100 µM | OVCAR-8 > 100 µM | SF-539 > 100 µM | SK-MEL-28 > 100 µM | SN12C 95.1 µM | SNB-75 > 100 µM | SW-620 > 100 µM

CN1C(=O)n2c(nc3ccccc32)C(N=[N+]=[N-])(N=[N+]=[N-])C1=O (stereo unspecified)
inactive: 786-0 > 100 µM | HCC 2998 > 100 µM | HCT-116 > 100 µM | K562 > 100 µM | LOX IMVI 77.3 µM | LXFL 529 > 100 µM | Malme-3M > 100 µM | NCI-H23 > 100 µM | OVCAR-3 > 100 µM | OVCAR-8 > 100 µM | SF-539 > 100 µM | SK-MEL-28 > 100 µM | SNB-75 57.3 µM | SW-620 > 100 µM

CC1(C)c2ccccc2N2O[C@@H]3C(=O)N(c4ccccc4)C(=O)[C@@H]3C21c1ccccc1 (stereo partly specified)
inactive: 786-0 > 100 µM | HCC 2998 > 100 µM | K562 56.4 µM | LOX IMVI > 100 µM | LXFL 529 > 100 µM | Malme-3M > 100 µM | NCI-H23 > 100 µM | OVCAR-3 > 100 µM | OVCAR-8 > 100 µM | SF-539 > 100 µM | SK-MEL-28 > 100 µM | SN12C > 100 µM | SNB-75 84.1 µM | SW-620 > 100 µM

OCCCCn1cc(Cn2ncc3c(SCc4ccccc4)ncnc32)nn1
inactive: 786-0 63.4 µM | HCC 2998 56.4 µM | HCT-116 33.6 µM | K562 38.8 µM | LOX IMVI 72.4 µM | MCF7 57 µM | MDA-MB-435 19.9 µM | Malme-3M > 100 µM | NCI-H23 54.2 µM | NCI/ADR-RES 21.6 µM | OVCAR-3 28.2 µM | OVCAR-8 58.3 µM | SF-539 43.2 µM | SK-MEL-28 51.2 µM | SN12C 63 µM | SNB-75 38.7 µM | SR 27.7 µM | SW-620 26.7 µM | T47D 32.2 µM

N#C/N=C(/NCCc1c[nH]c2ccccc12)Oc1ccccc1
inactive: 786-0 8.57 µM | HCC 2998 44 µM | HCT-116 52.5 µM | K562 26.8 µM | LOX IMVI 77.4 µM | LXFL 529 72.8 µM | NCI-H23 > 100 µM | OVCAR-3 > 100 µM | OVCAR-8 > 100 µM | SF-539 97.9 µM | SK-MEL-28 > 100 µM | SN12C > 100 µM | SNB-75 43 µM | SR 35 µM | SW-620 > 100 µM

COC(=O)c1cc(O)ccc1NC(=O)c1ccc(O)cc1
inactive: 786-0 > 100 µM | HCC 2998 > 100 µM | HCT-116 > 100 µM | K562 > 100 µM | LOX IMVI > 100 µM | LXFL 529 > 100 µM | Malme-3M > 100 µM | NCI-H23 > 100 µM | OVCAR-3 > 100 µM | OVCAR-8 > 100 µM | SF-539 > 100 µM | SK-MEL-28 > 100 µM | SNB-75 > 100 µM | SR > 100 µM | SW-620 > 100 µM

COc1c2nc(CCl)[nH]c(=O)c2c(OC)c2nc(CCl)[nH]c(=O)c12
inactive: 786-0 > 100 µM | HCT-116 > 100 µM | K562 > 100 µM | LOX IMVI > 100 µM | LXFL 529 > 100 µM | Malme-3M > 100 µM | NCI-H23 > 100 µM | OVCAR-3 > 100 µM | OVCAR-8 > 100 µM | SF-539 > 100 µM | SK-MEL-28 > 100 µM | SN12C > 100 µM | SNB-75 > 100 µM | SW-620 > 100 µM

CNC(=O)CCC(NC(=O)OC(C)(C)C)C(=O)NC(Cc1ccc([N+](=O)[O-])cc1)C(=O)NCC(=O)NC (stereo unspecified) (Boc-Glu(NHMe)-[Phe(4-NO2)]-Gly-NHMe; configuration not given here)
inactive: 786-0 > 100 µM | HCC 2998 > 100 µM | HCT-116 > 100 µM | K562 > 100 µM | LOX IMVI > 100 µM | MCF7 > 100 µM | MDA-MB-435 > 100 µM | Malme-3M > 100 µM | NCI-H23 > 100 µM | NCI/ADR-RES > 100 µM | OVCAR-3 > 100 µM | OVCAR-8 > 100 µM | SF-539 > 100 µM | SK-MEL-28 > 100 µM | SN12C > 100 µM | SNB-75 > 100 µM | SR > 100 µM | SW-620 > 100 µM | T47D > 100 µM
